One assay concerns the target T1, rat NaP2b (SLC34A2) (Rattus norvegicus, UniProt Q9JJ09).
T1 construct: host or cells: HEK293
T1 sequence (Q9JJ09 1-695): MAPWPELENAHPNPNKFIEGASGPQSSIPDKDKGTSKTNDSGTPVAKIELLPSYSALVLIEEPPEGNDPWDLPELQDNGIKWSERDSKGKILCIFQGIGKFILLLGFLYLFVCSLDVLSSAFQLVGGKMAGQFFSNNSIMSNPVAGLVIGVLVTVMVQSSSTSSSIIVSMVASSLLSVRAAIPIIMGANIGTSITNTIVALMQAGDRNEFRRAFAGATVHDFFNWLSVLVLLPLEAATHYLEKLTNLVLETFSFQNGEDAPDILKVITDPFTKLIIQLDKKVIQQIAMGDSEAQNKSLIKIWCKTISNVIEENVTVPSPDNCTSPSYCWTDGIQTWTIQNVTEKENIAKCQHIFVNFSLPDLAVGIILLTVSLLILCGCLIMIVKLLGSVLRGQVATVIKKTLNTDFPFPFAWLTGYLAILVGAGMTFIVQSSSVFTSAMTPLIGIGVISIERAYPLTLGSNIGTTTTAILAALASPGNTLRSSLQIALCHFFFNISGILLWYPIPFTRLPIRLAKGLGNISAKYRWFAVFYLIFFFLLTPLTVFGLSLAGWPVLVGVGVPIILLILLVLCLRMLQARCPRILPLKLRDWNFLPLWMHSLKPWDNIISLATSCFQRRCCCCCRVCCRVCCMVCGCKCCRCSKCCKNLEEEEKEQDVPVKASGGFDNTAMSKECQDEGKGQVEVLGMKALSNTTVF
Put plainly: Inhibition of NaP2b-mediated Pi (33P) uptake in transfected HEK293 cells, rat NaP2b. As to conditions: HEK293 cells transfected with rat NaP2b, 100 uM phosphate, 0.1 nM to 30 uM, read-out: pIC50 range for rat Nap2b (converted). The format is cell-based. The method in brief: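 HEK293 cells transiently transfected with rat NaP2b; 33P-phosphate uptake measured in sodium or choline buffer (100 uM KH2PO4, PiT-silencing agent, pH 7.4) with compound at twelve concentrations, 0.1 nM–30 uM, in duplicate. Lysed cells counted by scintillation; pIC50 derived from concentration-response.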

For another assay, the target named is T2, human NaP2b (SLC34A2) (Homo sapiens, UniProt O95436).
T2 construct: host or cells: HEK293
T2 sequence (O95436 1-690): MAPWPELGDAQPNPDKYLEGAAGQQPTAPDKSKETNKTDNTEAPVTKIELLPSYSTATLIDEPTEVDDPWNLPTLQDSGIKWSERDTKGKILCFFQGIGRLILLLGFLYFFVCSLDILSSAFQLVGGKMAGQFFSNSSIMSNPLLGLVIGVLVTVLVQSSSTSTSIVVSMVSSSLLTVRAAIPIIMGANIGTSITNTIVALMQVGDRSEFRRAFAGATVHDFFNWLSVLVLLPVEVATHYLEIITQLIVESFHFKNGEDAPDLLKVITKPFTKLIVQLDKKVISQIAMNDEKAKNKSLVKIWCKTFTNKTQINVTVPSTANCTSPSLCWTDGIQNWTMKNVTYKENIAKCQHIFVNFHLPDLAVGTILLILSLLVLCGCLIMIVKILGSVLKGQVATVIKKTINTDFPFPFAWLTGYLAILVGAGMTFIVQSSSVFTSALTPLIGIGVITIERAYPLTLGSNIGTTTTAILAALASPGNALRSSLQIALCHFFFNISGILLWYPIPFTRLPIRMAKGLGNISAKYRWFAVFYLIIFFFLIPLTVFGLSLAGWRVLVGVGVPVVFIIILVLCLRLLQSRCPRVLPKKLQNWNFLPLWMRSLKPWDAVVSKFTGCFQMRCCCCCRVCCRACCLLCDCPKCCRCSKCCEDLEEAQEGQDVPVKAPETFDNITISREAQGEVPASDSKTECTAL
Kind of assay: Inhibition of NaP2b-mediated Pi (33P) uptake in transfected HEK293 cells, human NaP2b. It counts as cell-based. To be noted: HEK293 cells transfected with human NaP2b, 100 uM phosphate, 0.1 nM to 30 uM, read-out: pIC50 range for human NaP2b (converted). The method in brief: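 HEK293 cells transiently expressing mutated human NaP2b, with PiT transport pharmacologically silenced; sodium-dependent 33P-phosphate uptake (100 uM KH2PO4, pH 7.4) measured over 3–30 min at room temperature by scintillation. Twelve compound concentrations from 0.1 nM to 30 uM, in duplicate; pIC50 calculated.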

As to `O=C(O)CCSCc1cccc(C(=O)Nc2ccc(N3CCCCC3)cc2-c2cc(C(=O)NCc3cccc(C(F)(F)F)c3)ccn2)c1` [Example 1.1, 3-(3-((2-(4-((3-(trifluoromethyl)benzyl)carbamoyl)pyridin-2-yl)-4-(piperidin-1-yl)phenyl)carbamoyl)-benzylthio)propanoic acid], the IC50 on rat NaP2b (SLC34A2) and at human NaP2b (SLC34A2) was 1 to 7.94 µM throughout.

Turning to `CCN(CC)c1ccc(NC(=O)c2cccc(C(=O)N(C)CCN3CCOCC3)c2)c(-c2cc(C(=O)NCc3cccc(C(F)(F)F)c3)ccn2)c1` [Example 25, N1-(4-(Diethylamino)-2-(4-((3-(trifluoromethyl)benzyl)carbamoyl)pyridin-2-yl)phenyl)-N3-methyl-N3-(2-morpholinoethyl)isophthalamide], the IC50 on rat NaP2b (SLC34A2) and at human NaP2b (SLC34A2) was under 1 µM in each case.

For the origin of these results see patent publication US9301951B2 (Ardelyx, Inc., priority 2010, dated 2016).
